{"source": "patent US10894787B2", "about": "“Modulators of the GPR119 receptor and the treatment of disorders related thereto” (Arena Pharmaceuticals, Inc., priority 2010, dated 2021)", "key": {"GPR119 receptor": {"target": "T1, GPR119 receptor (Homo sapiens, UniProt Q8TDV5)", "T1 construct": "expressed in transfected cells", "T1 sequence (Q8TDV5 2-335 limits assumed)": "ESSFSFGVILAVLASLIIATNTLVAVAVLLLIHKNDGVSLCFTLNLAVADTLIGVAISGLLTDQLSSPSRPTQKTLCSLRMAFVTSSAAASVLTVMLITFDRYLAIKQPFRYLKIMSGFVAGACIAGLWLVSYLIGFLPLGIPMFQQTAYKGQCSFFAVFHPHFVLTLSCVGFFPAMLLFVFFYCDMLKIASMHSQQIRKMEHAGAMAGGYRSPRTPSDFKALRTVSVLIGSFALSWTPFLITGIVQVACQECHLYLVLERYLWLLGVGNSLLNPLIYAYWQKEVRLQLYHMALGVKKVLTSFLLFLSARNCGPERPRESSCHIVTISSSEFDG", "experiment": "HTRF assay for direct cAMP measurement in CHO-K1 cells stably expressing the GPR119 receptor", "assay_type": "cell-based", "conditions": "for EC50: CHO-K1 cells stably expressing GPR119; for Pharmacological activity of metabolites (HTRF assay): metabolites of Compound 1", "protocol": "The GPR119 agonist, Compound 1, was evaluated in an HTRF® cAMP detection assay according to the manufacturer's instructions (Cisbio, cAMP Dynamic 2 Assay Kit; #62AM4PEJ) using CHO-K1 cells stably expressing the GPR119 receptor. Briefly, CHO-K1 cells were transduced with a lentiviral vector encoding the nucleotide sequence of GPR119 (NCBI mRNA and protein reference sequences: NM_178471.2 & NP_848566, (GPR119 has also been referred to as Glucose-Dependent Insulinotropic Receptor (GDIR)). The N-terminus of the GPR119 nucleotide sequence was modified to replace the first, methionine-coding codon with a nucleotide sequence coding for a standard, nine amino acid, hemagglutinin tag. Following transduction, cells expressing the GPR119 receptor were isolated and a single clone was isolated following standard dilution-cloning procedures. On the day of the assay, cultured CHO-GPR119 cells were harvested, suspended in assay buffer and plated into 384-well assay plates (PerkinElmer Proxiplate #6008280) at a density of 2,000 cells per well. A cAMP standard curve was included on each plate. Test compounds were solubilized in DMSO, serially diluted in DMSO and then diluted in assay buffer before adding to the cells. Test compounds were evaluated in triplicate, using 10-point, 5-fold serial dilutions starting at 10 μM. The final DMSO concentration in the assay was 0.5%. Compounds and cells were incubated for 1 h at room temperature and then detection reagents were added to each well (cAMP-D2 in cell lysis buffer, followed by europium cryptate-labeled anti-cAMP antibody). Plates were then incubated at room temperature for 1 h prior to reading. Time-resolved fluorescence measurements were collected on PerkinElmer Envision™ or BMG Pherastar™ microplate readers. The compound N-(2-fluoro-4-(methylsulfonyl)phenyl)-6-(4-(3-isopropyl-1,2,4-oxadiazol-5-yl)piperidin-1-yl)-5-nitropyrimidin-4-amine was used as a positive control in each runset while assay buffer containing 0.5% DMSO was used as the negative control."}, "liver microsomes": {"test_system": "liver microsomes", "experiment": "In vitro metabolism of Compound 1 in liver microsomes from various species", "assay_type": "in vitro ADME, mouse, rat, dog, monkey and human", "conditions": "Compound 1 incubated with 0.25 mg/mL microsomal protein, pH 7.4; relative to M2 and M3", "protocol": "(§1) Compound 1 was incubated with mouse, rat, dog, monkey and human liver microsomal protein (0.25 mg/mL final concentration) in 100 mM potassium phosphate buffer containing 3 mM MgCl2 and 1 mM EDTA (pH 7.4) for over a period of time in the presence or absence of (3-NADPH. The samples were then processed and the supernatant was analyzed by LC-MS/MS for the identification and quantification of the metabolites."}, "[1]": {"experiment": "In vivo metabolism of Compound 1: metabolites in dog plasma samples (LC/MS/MS)", "conditions": "dog plasma after dosing Compound 1; under the analytical conditions used", "protocol": "(§2) Metabolites of Compound 1 were identified in plasma samples collected from different pharmacokinetic studies in various species.\n(§3) Four species, mouse, rat, dog and monkey were dosed with Compound 1, and plasma samples were collected at predetermined time points from each of the species according to specific study protocols. The samples were then processed and subjected to the LC/MS/MS analysis for the identification and quantification of the metabolites. Three metabolites, designated M1 (Compound 2), M2 (Compound 3), and M3 were identified in plasma samples from various species. The M1 metabolite was identified as a mono-N-demethylation of Compound 1, and the M2 metabolite was a di-N-demethylation product of Compound 1. The third metabolite M3 (i.e., 3-fluoro-4-(5-fluoro-6-(4-(3-(2-fluoropropan-2-yl)-1,2,4-oxadiazol-5-yl)piperidin-1-yl)pyrimidin-4-ylamino)benzoic acid, see below) was determined as a carboxylic acid of Compound 1."}, "dog liver microsomes": {"test_system": "dog liver microsomes", "experiment": "In vitro metabolism of Compound 1 in dog liver microsomes", "assay_type": "in vitro ADME", "conditions": "Compound 1 incubated with 0.25 mg/mL microsomal protein, pH 7.4", "protocol": "as §1"}, "[2]": {"conditions": "combined administration with a DPP-IV inhibitor, cited from earlier work"}, "[3]": {"experiment": "In vivo metabolism of Compound 1: metabolites in plasma samples from various species (LC/MS/MS)", "parameters": "species or system mouse, rat, dog and monkey", "conditions": "all species, after dosing Compound 1", "protocol": "as §2, §3"}, "[4]": {"conditions": "human studies; infusion; over 24 hours; cited from earlier work"}, "[5]": {"conditions": "1 h incubation at room temperature, read-out: EC50, HTRF cAMP assay"}}, "note": "Where two headings read alike, the source gives them in different places."}
{"molecule": "CNC(=O)c1ccc(Nc2ncnc(N3CCC(c4nc(C(C)(C)F)no4)CC3)c2F)c(F)c1", "note": "[Compound 2, 3-fluoro-4-(5-fluoro-6-(4-(3-(2-fluoropropan-2-yl)-1,2,4-oxadiazol-5-yl)piperidin-1-yl)pyrimidin-4-ylamino)-N-methylbenzamide]", "values": [{"measurement": "EC50", "setting": "GPR119 receptor; [5]", "result": 27, "unit": "nM"}, {"measurement": "Pharmacological activity of metabolites (HTRF assay)", "setting": "GPR119 receptor", "result": "pharmacologically active"}, {"measurement": "Rate of formation of metabolite in liver microsomal incubation", "setting": "liver microsomes", "result": "highest"}]}
{"molecule": "CC(C)(F)c1noc(C2CCN(c3ncnc(Nc4ccc(C(N)=O)cc4F)c3F)CC2)n1", "note": "[Compound 3, 3-fluoro-4-(5-fluoro-6-(4-(3-(2-fluoropropan-2-yl)-1,2,4-oxadiazol-5-yl)piperidin-1-yl)pyrimidin-4-ylamino)benzamide]", "values": [{"measurement": "EC50", "setting": "GPR119 receptor; [5]", "result": 28.2, "unit": "nM"}, {"measurement": "Pharmacological activity of metabolites (HTRF assay)", "setting": "GPR119 receptor", "result": "pharmacologically active"}, {"measurement": "Metabolite observed in dog plasma samples", "setting": "[1]", "result": "not observed"}, {"measurement": "Formation of metabolite in dog liver microsomes", "setting": "dog liver microsomes", "result": "negligible"}]}
{"molecule": "CC(C)c1noc(C2CCN(c3ncnc(Nc4ccc(S(C)(=O)=O)cc4F)c3[N+](=O)[O-])CC2)n1", "note": "[Compound B111, (2-Fluoro-4-methanesulfonyl-phenyl)-{6-[4-(3-isopropyl-[1,2,4]oxadiazol-5-yl)-piperidin-1-yl]-5-nitro-pyrimidin-4-yl}-amine]", "values": [{"measurement": "Plasma GLP-1 levels", "setting": "[2]; greater than either agent alone", "result": "acutely increased plasma GLP-1 levels"}, {"measurement": "Glucose tolerance", "setting": "[2]; significantly greater degree than either agent alone", "result": "improved glucose tolerance"}]}
{"molecule": "CC(C)(F)c1noc(C2CCN(c3ncnc(Nc4ccc(C(=O)O)cc4F)c3F)CC2)n1", "note": "[Compound M3, 3-fluoro-4-(5-fluoro-6-(4-(3-(2-fluoropropan-2-yl)-1,2,4-oxadiazol-5-yl)piperidin-1-yl)pyrimidin-4-ylamino)benzoic acid]", "values": [{"measurement": "EC50", "setting": "GPR119 receptor; read-out: EC50, HTRF assay", "result": 100000, "unit": "nM"}, {"measurement": "Pharmacological activity of metabolites (HTRF assay)", "setting": "GPR119 receptor", "result": "substantially little activity"}, {"measurement": "Circulating metabolite status", "setting": "[3]", "result": "major circulating metabolite"}]}
{"molecule": "PYY3-36: generated from PYY1-36 by cleavage of the N-terminal Tyr and Pro residues by DPP-IV; Y2R agonist", "values": [{"measurement": "Reduction of food intake", "setting": "[4]", "result": 33, "unit": "%"}]}
